Experimental findings from US20060247227A1, “Substituted piperidines as histamine h3 receptor ligands” (priority 2003, published 2006) are described below.

Structures can show the parent of a compound that is named as a salt.

For orientation: Ki means a measure of affinity in units of concentration, obtained from inhibition or displacement.

In this assay the target is T1, histamine H3 receptor (Homo sapiens, UniProt Q9Y5N1).
T1 construct: expressed in transfected cells; host or cells: CHO K1 cells carrying pSwitch, transfected with pGeneH3 and induced with mifepristone; clone 3H3; membranes
T1 sequence (Q9Y5N1 whole entry): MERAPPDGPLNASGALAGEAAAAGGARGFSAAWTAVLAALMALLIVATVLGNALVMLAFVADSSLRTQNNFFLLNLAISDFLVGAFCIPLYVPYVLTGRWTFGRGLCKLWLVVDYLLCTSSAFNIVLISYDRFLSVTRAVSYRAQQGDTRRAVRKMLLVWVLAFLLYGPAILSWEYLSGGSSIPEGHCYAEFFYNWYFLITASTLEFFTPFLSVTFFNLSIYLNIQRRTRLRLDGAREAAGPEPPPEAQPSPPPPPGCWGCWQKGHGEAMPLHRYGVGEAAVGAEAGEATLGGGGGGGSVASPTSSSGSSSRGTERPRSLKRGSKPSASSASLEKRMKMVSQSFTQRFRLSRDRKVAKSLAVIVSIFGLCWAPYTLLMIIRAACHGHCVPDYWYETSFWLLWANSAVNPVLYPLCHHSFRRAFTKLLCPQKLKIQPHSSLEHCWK
Kind of assay: Histamine H3 functional antagonist assay ([35S]GTPγS, SPA, membranes of CHO K1 cells expressing the receptor). Type of assay: biochemical. Conditions: histamine-stimulated GTPγS binding, membranes with human H3. An excerpt: A membrane preparation containing histamine H3 receptors may be prepared in accordance with the following procedures:
(i) Generation of Histamine H3 Cell Line
DNA encoding the human histamine H3 gene (Huvar, A. et al. (1999) Mol. Pharmacol. 55(6), 1101-1107) was cloned into a holding vector, pCDNA3.1 TOPO (InVitrogen) and its cDNA was isolated from this vector by restriction digestion of plasmid DNA with the enzymes BamH1 and Not-1 and ligated into the inducible expression vector pGene (InVitrogen) digested with the same enzymes. The GeneSwitch™ system (a system where in transgene expression is switched off in the absence of an inducer and switched on in the presence of an inducer) was performed as described in U.S. Pat. Nos. 5,364,791; 5,874,534; and 5,935,934. Ligated DNA was transformed into competent DH5α E. coli host bacterial cells and plated onto Luria Broth (LB) agar containing Zeocin™ (an antibiotic which allows the selection of cells expressing the sh ble gene which is present on pGene and pSwitch) at 50 μg ml^−1. Colonies containing the re-ligated plasmid were identified by restriction analysis. DNA for transfection into mammalian cells was prepared from 250 ml cultures of the host bacterium containing the pGeneH3 plasmid and isolated using a DNA preparation kit (Qiagen Midi-Prep) as per manufacturers guidelines (Qiagen).
CHO K1 cells previously transfected with the pSwitch regulatory plasmid (InVitrogen) were seeded at 2×10e6cells per T75 flask in Complete Medium, containing Hams F12 (GIBCOBRL, Life Technologies) medium supplemented with 10% v/v dialysed foetal bovine serum, L-glutamine, and hygromycin ([…]), 24 hours prior to use. Plasmid DNA was transfected into the cells using Lipofectamine plus according to the manufacturers guidelines (InVitrogen). 48 hours post transfection cells were placed into complete medium supplemented with […] Zeocin™.
10-14 days post selection 10 nM Mifepristone (InVitrogen), was added to the culture medium to induce the expression of the receptor. 18 hours post induction cells were detached from the flask using ethylenediamine tetra-acetic acid (EDTA; 1:5000; InVitrogen), following several washes with phosphate buffered saline pH 7.4and resuspended in Sorting Medium containing Minimum Essential Medium (MEM), without phenol red, and supplemented with Earles salts and 3% Foetal Clone II (Hyclone). Approximately 1×10e7 cells were examined for receptor expression by staining with a rabbit polyclonal antibody, 4a, raised against the N-terminal domain of the histamine H3 receptor, incubated on ice for 60 minutes, followed by two washes in sorting medium. Receptor bound antibody was detected by incubation of the cells for 60 minutes on ice with a goat anti rabbit antibody, conjugated with Alexa 488 fluorescence marker (Molecular Probes). Following two further washes with Sorting Medium, cells were filtered through a 50 μm Filcon™ (BD Biosciences) and then analysed on a FACS Vantage SE Flow Cytometer fitted with an Automatic Cell Deposition Unit. Control cells were non-induced cells treated in a similar manner. Positively stained cells were sorted as single cells into 96-well plates, containing Complete Medium containing 500 μg ml^−1 Zeocin™ and allowed to expand before reanalysis for receptor expression via antibody and ligand binding studies. One clone, 3H3, was selected for membrane preparation.
(ii) Membrane Preparation from Cultured Cells
All steps of the protocol are carried out at 4° C. and with pre-cooled reagents. The cell pellet is resuspended in 10 volumes of buffer A2 containing 50 mM N-2-hydroxyethylpiperazine-N′-2-ethanesulfonic acid (HEPES) (pH 7.40) supplemented with […] leupeptin (acetyl-leucyl-leucyl-arginal; Sigma L2884), 25 μg/ml bacitracin (Sigma B0125), 1 mM ethylenediamine tetra-acetic acid (EDTA), 1 mM phenylmethylsulfonyl fluoride (PMSF) and 2×10e-6M pepstain A (Sigma). […]
The compound `CNC(=O)c1ccc(N2CCC(OC3CCN(C(C)C)CC3)CC2)nc1` [Example E50] gave an inhibition constant Ki below 10 nM.

Consider `CC(C)N1CCC(OC2CCN(c3ccc(C(=O)N(C)C)cn3)CC2)CC1` [Example E51], for which the Ki is below 10 nM.

`CC(C)N1CCC(OC2CCN(c3ccc(C(=O)N4CCCC4)cn3)CC2)CC1` [Example E52] showed a Ki below 10 nM.

`CC(C)N1CCC(OC2CCN(c3ccc(C(=O)N4CCOCC4)cn3)CC2)CC1` [Example E53] gave a Ki below 10 nM.

`CNC(=O)c1ccc(N2CCC(OC3CCN(C4CCC4)CC3)CC2)nc1` [Example E54] gave a Ki of at most 1 nM.

In turn, `CN(C)C(=O)c1ccc(N2CCC(OC3CCN(C4CCC4)CC3)CC2)nc1` [Example E55] showed a Ki of at most 1 nM.

Turning to `O=C(c1ccc(N2CCC(OC3CCN(C4CCC4)CC3)CC2)nc1)N1CCCC1` [Example E56], the Ki is at most 1 nM.

`O=C(c1ccc(N2CCC(OC3CCN(C4CCC4)CC3)CC2)nc1)N1CCOCC1` [Example E57]: the Ki is at most 1 nM.

On to `CNC(=O)c1cccc(N2CCC(OC3CCN(C(C)C)CC3)CC2)n1` [Example E58], for which the Ki is below 10 nM.

On to `CC(C)N1CCC(OC2CCN(c3cccc(C(=O)N4CCCC4)n3)CC2)CC1` [Example E60], for which the Ki is below 10 nM.

`CC(C)N1CCC(OC2CCN(c3cccc(C(=O)N4CCOCC4)n3)CC2)CC1` [Example E61] had a Ki below 10 nM.

For the compound `CNC(=O)c1cccc(N2CCC(OC3CCN(C4CCC4)CC3)CC2)n1` [Example E62], the Ki was at most 1 nM.

On to `CN(C)C(=O)c1cccc(N2CCC(OC3CCN(C4CCC4)CC3)CC2)n1` [Example E63], for which the Ki was below 10 nM.

Regarding `O=C(c1cccc(N2CCC(OC3CCN(C4CCC4)CC3)CC2)n1)N1CCCC1` [Example E64], the Ki was below 10 nM.

`O=C(c1cccc(N2CCC(OC3CCN(C4CCC4)CC3)CC2)n1)N1CCOCC1` [Example E65] had an inhibitory constant (Ki) below 10 nM.

Take `CC(C)NC(=O)c1cc(N2CCC(OC3CCN(C4CCC4)CC3)CC2)ccn1` [Example E67]: the inhibition constant (Ki) is below 10 nM.

In the case of `O=C(c1cc(N2CCC(OC3CCN(C4CCC4)CC3)CC2)ccn1)N1CCCCC1` [Example E69], the Ki is below 10 nM.

With `CNC(=O)c1cnc(N2CCC(OC3CCN(C4CCC4)CC3)CC2)cn1` [Example E70, 5-(4-[(1-Cyclobutyl-4-piperidinyl)oxy]-1-piperidinyl}-N-methyl-2-pyrazinecarboxamide butanedioate], the inhibitory constant (Ki) was at most 1 nM.

As for `CCNC(=O)c1cnc(N2CCC(OC3CCN(C4CCC4)CC3)CC2)cn1` [Example E71], the Ki was at most 1 nM.

Consider `CCCNC(=O)c1cnc(N2CCC(OC3CCN(C4CCC4)CC3)CC2)cn1` [Example E72], for which the inhibition constant Ki is at most 1 nM.

In the case of `CC(C)NC(=O)c1cnc(N2CCC(OC3CCN(C4CCC4)CC3)CC2)cn1` [Example E73], the Ki was at most 1 nM.

`O=C(NC1CCC1)c1cnc(N2CCC(OC3CCN(C4CCC4)CC3)CC2)cn1` [Example E74] gave a Ki of at most 1 nM.

Consider `CNC(=O)c1cnc(N2CCC(OC3CCN(C(C)C)CC3)CC2)cn1` [Example E75], for which the Ki was at most 1 nM.

With `CCNC(=O)c1cnc(N2CCC(OC3CCN(C(C)C)CC3)CC2)cn1` [Example E76], the Ki is at most 1 nM.

On to `CCCNC(=O)c1cnc(N2CCC(OC3CCN(C(C)C)CC3)CC2)cn1` [Example E77], for which the Ki was at most 1 nM.

Compound `CC(C)NC(=O)c1cnc(N2CCC(OC3CCN(C(C)C)CC3)CC2)cn1` [Example E78] showed a Ki of at most 1 nM.

In turn, `CC(C)N1CCC(OC2CCN(c3cnc(C(=O)NC4CCC4)cn3)CC2)CC1` [Example E79] gave a Ki of at most 1 nM.

Regarding `CC(C)N1CCC(OC2CCN(c3ccc(C#N)nc3)CC2)CC1` [Example E80, 5-(4-{[1-(1-Methylethyl)-4-piperidinyl]oxy)-1-piperidinyl)-2-pyridinecarbonitrile hydrochloride], the Ki is at most 1 nM.
